Consider 10 compounds from ChEMBL document CHEMBL1201862, “PubChem BioAssay data set” (2004).

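1) Cells in 96-well plates. 2) Compound, 48 h, 5 concentrations. 3) Linear interpolation between surrounding doses. 4) Unreached endpoint = highest concentration. The concentration for 50% growth inhibition is given as GI50.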 Activity calls are given as the source filed them. No stated cut-off is given here; in the data, active = GI50 up to about 1.1 µM and inactive = higher.

Among the test systems are A498; Malme-3M; NCI-H460; SF-268; SK-OV-3; UO-31; HCT-15; Hs-578T; HOP-92; SK-MEL-2; OVCAR-8; MOLT-4; HCT-116; TK-10; RXF 393; CCRF-CEM; OVCAR-5; PC-3; MCF7; T47D.
Test in all cases: NCI tumour cell line growth inhibition, 48 h

With `C1CNCCN2CCCNCCN(C1)CC2`, the GI50 in the assay with A498, with Malme-3M, with NCI-H460, with SF-268, in the assay with SK-OV-3 and with UO-31 was > 100 µM (inactive) each time. The GI50 is more than 100 µM with HCT-15; > 100 µM (inactive) in the assay on Hs-578T; > 100 µM (inactive) in the assay on HOP-92; > 100 µM (inactive) with SK-MEL-2; > 100 µM (inactive) with OVCAR-8; > 100 µM (inactive) in the assay on MOLT-4. The GI50 in the assay with HCT-116 is > 100 µM (inactive); in the assay on TK-10, > 100 µM (inactive); in the assay on RXF 393, > 100 µM (inactive); in the assay on CCRF-CEM it was 2 µM (inactive); in the assay with OVCAR-5, > 100 µM (inactive); in the assay on PC-3, > 100 µM (inactive). The GI50 in the assay on MCF7 and in the assay on T47D was > 100 µM (inactive) in each case.

`Cc1cc(C)c(S(=O)(=O)N(CCCN)OCCCON(CCCN)S(=O)(=O)c2c(C)cc(C)cc2C)c(C)c1`: the GI50 is 3.38 µM (inactive) in the assay on A498; 0.879 µM (active) in the assay with Malme-3M; 1.67 µM (inactive) in the assay on NCI-H460; 1.42 µM (inactive) with SF-268; 1.82 µM (inactive) in the assay on SK-OV-3; 16.7 µM (inactive) with UO-31. Moreover, the GI50 in the assay on HCT-15 is 18.2 µM; in the assay with Hs-578T it was 1.49 µM (inactive); with HOP-92 it was 1.98 µM (inactive); in the assay with SK-MEL-2, 1.79 µM (inactive); in the assay with OVCAR-8, 3.68 µM (inactive); with MOLT-4, 2.03 µM (inactive). Also, the GI50 with HCT-116 is 1.75 µM (inactive); in the assay with TK-10, 4.5 µM (inactive); in the assay with RXF 393, 4.6 µM (inactive); in the assay on CCRF-CEM it was 2.3 µM (inactive); in the assay on OVCAR-5, 2.2 µM (inactive); with PC-3, 1.82 µM (inactive). The GI50 in the assay with MCF7 is 1.82 µM (inactive); in the assay with T47D, 1.61 µM (inactive).

Take `O=C(/C=C/c1ccc(-c2ccccc2)cc1)NCc1ccc(C(=O)NCc2ccccc2)cc1`: the GI50 in the assay with A498, in the assay on Malme-3M, in the assay with NCI-H460, in the assay with SF-268, in the assay with SK-OV-3 and in the assay on UO-31 was > 100 µM (inactive) in each case. The GI50 in the assay with HCT-15 is more than 100 µM; with Hs-578T it was > 100 µM (inactive); with HOP-92, > 100 µM (inactive); in the assay with SK-MEL-2, > 100 µM (inactive); in the assay on OVCAR-8, > 100 µM (inactive); with HCT-116, > 100 µM (inactive). In addition, the GI50 in the assay on TK-10 is > 100 µM (inactive); in the assay with RXF 393 it was 12.7 µM (inactive); with CCRF-CEM, > 100 µM (inactive); with OVCAR-5 it was > 100 µM (inactive); in the assay with PC-3, > 100 µM (inactive); in the assay with MCF7, > 100 µM (inactive). In addition, the GI50 with T47D is > 100 µM (inactive).

On to `CC(C)(C)OC(=O)n1cc(C2CN(O)C(=O)C23CCC(=O)N3Cc2ccccc2)c2ccccc21` (configuration not stated), for which the GI50 in the assay with A498 was 24.8 µM (inactive); with Malme-3M it was > 100 µM (inactive); in the assay with NCI-H460 it was 56.4 µM (inactive); with SF-268, 86.3 µM (inactive); in the assay with SK-OV-3, 23.9 µM (inactive); in the assay on UO-31, 40.7 µM (inactive). The GI50 with Hs-578T was 42.3 µM (inactive); with HOP-92, 4.46 µM (inactive); with SK-MEL-2, 14.8 µM (inactive); in the assay on MOLT-4, > 100 µM (inactive); with HCT-116 it was 66.2 µM (inactive); in the assay with TK-10, 32.8 µM (inactive). Besides, the GI50 was 68.4 µM (inactive) in the assay with RXF 393; 83.2 µM (inactive) with CCRF-CEM; 46.9 µM (inactive) in the assay on OVCAR-5; 28 µM (inactive) with PC-3; 33.5 µM (inactive) with MCF7; 50.6 µM (inactive) with T47D.

`CC(C)=CC[C@]12CCN(C)[C@H]1N(S(=O)(=O)c1ccccc1)c1ccccc12`: the GI50 in the assay on A498 is > 100 µM (inactive); in the assay with Malme-3M, > 49.2 µM (inactive); with NCI-H460 it was > 40.4 µM (inactive); with SF-268, > 44.6 µM (inactive); with SK-OV-3, 6.25 µM (inactive); with UO-31 it was > 22.5 µM (inactive). In addition, the GI50 in the assay with HCT-15 was more than 47.2 µM; in the assay with Hs-578T, > 45.4 µM (inactive); in the assay on HOP-92, 3.38 µM (inactive); with SK-MEL-2 it was 15.5 µM (inactive); with OVCAR-8, > 64 µM (inactive); with MOLT-4 it was > 43.4 µM (inactive). Besides, the GI50 in the assay on HCT-116 was > 44.6 µM (inactive); in the assay on TK-10, > 55.5 µM (inactive); in the assay on RXF 393, > 38.3 µM (inactive); with CCRF-CEM, > 50.7 µM (inactive); with OVCAR-5, > 59.8 µM (inactive); with PC-3, > 54 µM (inactive). Also, the GI50 in the assay on MCF7 is > 42.8 µM (inactive); with T47D, 9.73 µM (inactive).

`Cc1cn(C2CC(N=[N+]=[N-])C(CO)O2)c(=O)n(CCCCBr)c1=O` (configuration not stated): the GI50 with A498, with Malme-3M, in the assay on NCI-H460, with SF-268, in the assay on SK-OV-3 and with UO-31 was > 100 µM (inactive) each time. The GI50 was more than 100 µM in the assay with HCT-15; > 100 µM (inactive) in the assay with Hs-578T; > 100 µM (inactive) in the assay on HOP-92; 61 µM (inactive) with SK-MEL-2; > 100 µM (inactive) with OVCAR-8; 95.1 µM (inactive) in the assay on MOLT-4. In addition, the GI50 is > 100 µM (inactive) in the assay with HCT-116; > 100 µM (inactive) with TK-10; > 100 µM (inactive) in the assay with RXF 393; < 0.01 µM (active) in the assay with CCRF-CEM; > 100 µM (inactive) in the assay on OVCAR-5; 26.3 µM (inactive) in the assay with PC-3. Moreover, the GI50 in the assay on MCF7 was 60.5 µM (inactive); with T47D, > 100 µM (inactive).

Turning to `CCC1=C(CC2NCCc3ccccc32)CC2c3cc(OC)c(OC)cc3CCN2C1` (configuration not stated), the GI50 with A498 is 0.83 µM (active); in the assay with Malme-3M, 0.603 µM (active); with NCI-H460, 0.3 µM (active); in the assay on SF-268, 0.719 µM (active); in the assay on SK-OV-3 it was 1.07 µM (active); with UO-31 it was 0.736 µM (active). The GI50 was 0.552 µM with HCT-15; 0.44 µM (active) with Hs-578T; 0.675 µM (active) in the assay with HOP-92; 0.603 µM (active) in the assay on SK-MEL-2; 0.445 µM (active) in the assay with OVCAR-8; 0.276 µM (active) with MOLT-4. For the same compound, the GI50 in the assay on HCT-116 is 0.307 µM (active); in the assay on TK-10 it was 0.728 µM (active); with RXF 393, 0.635 µM (active); with CCRF-CEM, 0.357 µM (active); in the assay with OVCAR-5, 0.579 µM (active); in the assay with PC-3, 0.333 µM (active). The results for the GI50 in the assay with MCF7 and with T47D were 0.292 µM (active) and 0.514 µM (active), respectively.

Consider `CCCc1cc(=O)oc2c(C=O)c(O)cc(O)c12`, for which the GI50 with A498 is 19.5 µM (inactive); with Malme-3M, 18.5 µM (inactive); in the assay with NCI-H460, 24.8 µM (inactive); with SF-268, 26.6 µM (inactive); in the assay on SK-OV-3, 27.8 µM (inactive); in the assay with UO-31, 22.8 µM (inactive). In addition, the GI50 is 26.4 µM in the assay with HCT-15; 22.6 µM (inactive) in the assay on Hs-578T; 18.7 µM (inactive) with HOP-92; 18.2 µM (inactive) in the assay with SK-MEL-2; 22 µM (inactive) in the assay on OVCAR-8; 23.3 µM (inactive) with MOLT-4. The GI50 in the assay on HCT-116 was 21.8 µM (inactive); with TK-10 it was > 100 µM (inactive); in the assay with RXF 393 it was 24 µM (inactive); in the assay on CCRF-CEM it was 22.8 µM (inactive); with OVCAR-5, 26.7 µM (inactive); in the assay on PC-3 it was 25.1 µM (inactive). The GI50 is 27 µM (inactive) in the assay with MCF7 and 23.1 µM (inactive) in the assay with T47D.

Regarding `OCC1CCCCN1Cc1nc2cc(Cl)ccc2[nH]1` (configuration not stated), the GI50 with A498, in the assay with Malme-3M, in the assay with NCI-H460, in the assay with SF-268, in the assay with SK-OV-3 and with UO-31 was > 100 µM (inactive) throughout. Besides, the GI50 with HCT-15 is more than 100 µM; with Hs-578T, > 100 µM (inactive); in the assay on HOP-92, > 100 µM (inactive); in the assay on SK-MEL-2, > 100 µM (inactive); in the assay on OVCAR-8 it was > 100 µM (inactive); in the assay on MOLT-4 it was > 100 µM (inactive). The GI50 with HCT-116 was > 100 µM (inactive); in the assay with TK-10, > 100 µM (inactive); with RXF 393, 65 µM (inactive); in the assay on CCRF-CEM it was > 100 µM (inactive); with OVCAR-5 it was > 100 µM (inactive); in the assay with PC-3, 55.2 µM (inactive). For the same compound, the GI50 with MCF7 and in the assay with T47D was > 100 µM (inactive) in each case.

On to `O=c1c2ccccc2n2nnc3ccc(NCCNCCO)c1c32`, for which the GI50 in the assay with A498 was 1.89 µM (inactive); in the assay on Malme-3M, 1.87 µM (inactive); in the assay with NCI-H460, 0.679 µM (active); in the assay on SF-268 it was 1.71 µM (inactive); in the assay with SK-OV-3, 2.08 µM (inactive); in the assay with UO-31 it was 0.863 µM (active). In addition, the GI50 in the assay with HCT-15 was 2.03 µM; with Hs-578T it was 2.03 µM (inactive); in the assay with HOP-92 it was 1.88 µM (inactive); in the assay on SK-MEL-2 it was 3.19 µM (inactive); in the assay on OVCAR-8, 0.908 µM (active); in the assay on MOLT-4, 0.361 µM (active). For the same compound, the GI50 with HCT-116 was 1.29 µM (inactive); in the assay on TK-10, 2.79 µM (inactive); in the assay with RXF 393 it was 1.87 µM (inactive); in the assay on CCRF-CEM, 0.948 µM (active); in the assay with OVCAR-5 it was 2.34 µM (inactive); in the assay on PC-3 it was 1.29 µM (inactive). For the same compound, the GI50 is 3.24 µM (inactive) with MCF7 and 5.82 µM (inactive) in the assay on T47D.
